Structures are written as SMILES. Like-named read-outs stand apart in the source and are kept apart here.

One data set has as its target T1, human CYP1A2 (Homo sapiens, UniProt P05177).
T1 sequence (P05177 1-516): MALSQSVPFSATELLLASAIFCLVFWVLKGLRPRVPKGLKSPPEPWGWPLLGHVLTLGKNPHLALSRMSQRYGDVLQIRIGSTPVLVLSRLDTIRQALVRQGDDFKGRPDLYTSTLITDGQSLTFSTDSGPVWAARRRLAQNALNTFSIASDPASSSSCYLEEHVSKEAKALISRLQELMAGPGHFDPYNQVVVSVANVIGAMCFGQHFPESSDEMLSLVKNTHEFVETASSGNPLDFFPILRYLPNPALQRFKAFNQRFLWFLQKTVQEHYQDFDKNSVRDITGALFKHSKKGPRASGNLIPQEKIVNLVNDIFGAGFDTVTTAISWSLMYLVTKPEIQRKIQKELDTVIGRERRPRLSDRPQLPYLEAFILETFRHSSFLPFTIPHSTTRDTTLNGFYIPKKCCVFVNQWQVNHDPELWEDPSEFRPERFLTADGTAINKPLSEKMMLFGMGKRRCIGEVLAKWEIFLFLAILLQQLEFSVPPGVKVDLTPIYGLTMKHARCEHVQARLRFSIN

Another data set addresses human CYP2C9 (Homo sapiens, UniProt P11712). In words: biochemical.
Another data set has as its target human CYP2D6 (Homo sapiens, UniProt P10635).
The target in a further data set is CYP3A4 (Homo sapiens, UniProt P08684). Kind of data set: biochemical.
Chain of CYP3A4 (P08684 whole entry): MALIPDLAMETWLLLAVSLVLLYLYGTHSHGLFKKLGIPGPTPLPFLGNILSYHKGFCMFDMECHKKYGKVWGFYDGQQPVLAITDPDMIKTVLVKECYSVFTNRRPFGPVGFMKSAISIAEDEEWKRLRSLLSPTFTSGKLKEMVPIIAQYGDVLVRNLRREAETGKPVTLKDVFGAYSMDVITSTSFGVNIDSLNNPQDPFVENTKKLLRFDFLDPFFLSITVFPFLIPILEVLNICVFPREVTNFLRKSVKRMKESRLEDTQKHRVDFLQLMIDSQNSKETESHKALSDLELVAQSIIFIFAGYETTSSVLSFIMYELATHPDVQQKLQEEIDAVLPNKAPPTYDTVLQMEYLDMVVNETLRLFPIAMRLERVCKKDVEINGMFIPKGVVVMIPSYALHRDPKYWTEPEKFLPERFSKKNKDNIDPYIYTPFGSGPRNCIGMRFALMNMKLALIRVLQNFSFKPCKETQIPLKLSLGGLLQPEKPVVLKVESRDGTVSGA
In data set [1] the target is T2, human CYP2C19 (Homo sapiens, UniProt P33261). In words: biochemical.
T2 sequence (P33261 whole entry): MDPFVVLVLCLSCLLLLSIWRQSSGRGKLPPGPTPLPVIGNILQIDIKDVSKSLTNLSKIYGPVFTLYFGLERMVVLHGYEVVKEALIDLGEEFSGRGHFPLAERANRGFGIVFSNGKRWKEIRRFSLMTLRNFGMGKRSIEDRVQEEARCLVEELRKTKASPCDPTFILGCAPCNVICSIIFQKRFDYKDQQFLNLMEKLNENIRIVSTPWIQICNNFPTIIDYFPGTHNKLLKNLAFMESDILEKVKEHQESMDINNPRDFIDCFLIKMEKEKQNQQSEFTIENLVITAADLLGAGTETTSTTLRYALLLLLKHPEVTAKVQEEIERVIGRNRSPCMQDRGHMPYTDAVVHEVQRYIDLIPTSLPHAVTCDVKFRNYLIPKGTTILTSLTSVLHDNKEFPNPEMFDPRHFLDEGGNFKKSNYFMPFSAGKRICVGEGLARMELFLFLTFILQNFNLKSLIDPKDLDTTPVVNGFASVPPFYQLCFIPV
Data set [2] concerns the target T2, human CYP2C19.
Setting [3] is: CYP2C9 AC50 (half-maximal activity concentration).
The mark [4] stands for this setting: CYP3A4 AC50 (half-maximal activity concentration).
Where [5] appears, read: CYP2C19 AC50 (half-maximal activity concentration).

Chain of human CYP2D6 (P10635 whole entry): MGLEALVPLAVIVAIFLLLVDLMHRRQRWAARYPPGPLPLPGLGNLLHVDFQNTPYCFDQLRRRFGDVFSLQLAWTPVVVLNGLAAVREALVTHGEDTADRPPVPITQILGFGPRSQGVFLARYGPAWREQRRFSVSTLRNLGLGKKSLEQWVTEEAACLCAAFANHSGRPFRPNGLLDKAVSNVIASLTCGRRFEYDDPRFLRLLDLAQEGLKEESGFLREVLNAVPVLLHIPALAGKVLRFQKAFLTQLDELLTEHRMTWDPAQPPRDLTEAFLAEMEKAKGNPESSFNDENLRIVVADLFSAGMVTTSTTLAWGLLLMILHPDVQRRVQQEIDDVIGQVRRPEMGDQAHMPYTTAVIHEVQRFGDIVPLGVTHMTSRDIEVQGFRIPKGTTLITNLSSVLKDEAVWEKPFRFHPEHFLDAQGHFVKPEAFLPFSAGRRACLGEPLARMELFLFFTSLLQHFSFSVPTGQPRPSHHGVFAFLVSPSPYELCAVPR
Chain of human CYP2C9 (P11712 whole entry): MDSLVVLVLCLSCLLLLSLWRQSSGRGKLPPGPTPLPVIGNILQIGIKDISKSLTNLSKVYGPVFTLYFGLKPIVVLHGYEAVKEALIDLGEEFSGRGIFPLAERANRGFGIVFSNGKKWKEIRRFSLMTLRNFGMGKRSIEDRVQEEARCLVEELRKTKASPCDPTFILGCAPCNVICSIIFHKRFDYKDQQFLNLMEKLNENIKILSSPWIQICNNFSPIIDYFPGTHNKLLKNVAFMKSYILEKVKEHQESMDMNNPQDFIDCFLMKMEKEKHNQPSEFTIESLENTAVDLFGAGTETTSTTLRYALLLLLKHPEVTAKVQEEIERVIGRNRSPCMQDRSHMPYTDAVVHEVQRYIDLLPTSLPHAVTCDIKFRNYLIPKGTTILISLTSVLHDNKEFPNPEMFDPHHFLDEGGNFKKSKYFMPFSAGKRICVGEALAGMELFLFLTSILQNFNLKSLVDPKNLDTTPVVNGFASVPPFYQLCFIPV

A word on the AC50: it is the concentration at which the activity in the assay is half-maximal. A high value points to activity only at high concentration. In the case of `ClC(Cl)=C(c1ccc(Cl)cc1)c1ccccc1Cl` [o,p'-DDE], the “CYP1A2 AC50 (half-maximal activity concentration)” value (from here on “CYP1A2 AC50”) at human CYP1A2 was “Inactive”. The concentration at half-maximal activity (AC50) at human CYP2C9 (setting [3]) stood at 21 µM; at CYP3A4 (setting [4]), 22.9 µM; on human CYP2C19 [1] (setting [5]), 6.84 µM. The “CYP2D6 AC50 (half-maximal activity concentration)” value (“CYP2D6 AC50” below) at human CYP2D6 was “Inactive”.
`C=C1C[C@H]2[C@@H]3C=C(C)C4=CC(=O)CC[C@]4(C)[C@H]3CC[C@]2(C)[C@@]1(OC(C)=O)C(C)=O` [Melengestrol acetate]: the “CYP1A2 AC50” value at human CYP1A2 is reported as “Inactive”. Further, the figures for the AC50 at human CYP2C9 (setting [3]), on CYP3A4 (setting [4]) and at human CYP2C19 [1] (setting [5]) were 16.8 µM, 4.92 µM and 20.3 µM, respectively. Further, the “CYP2D6 AC50” value on human CYP2D6 is reported as “Inactive”.
Regarding `CCOCN(C(=O)CCl)c1c(C)cccc1CC` [Acetochlor], the “CYP1A2 AC50” value on human CYP1A2 is recorded as “Inconclusive inhibitor”. Moreover, the values for the concentration at half-maximal activity (AC50) at human CYP2C9 (setting [3]), at CYP3A4 (setting [4]) and on human CYP2C19 [1] (setting [5]) were 31.2 µM, 8.35 µM and 9.51 µM, respectively. Moreover, the “CYP2D6 AC50” value on human CYP2D6 is on record as “Inactive”.
Consider `COC(=O)C(C)N(C(=O)Cc1ccccc1)c1c(C)cccc1C` (stereo not drawn) [Benalaxyl], for which the “CYP1A2 AC50” value on human CYP1A2 is given as “Inactive”. Further, the AC50 at human CYP2C9 (setting [3]) came out at 22.6 µM; at CYP3A4 (setting [4]), 4.54 µM; on human CYP2C19 [1] (setting [5]), 5.23 µM. The “CYP2D6 AC50” value at human CYP2D6 is given as “Inconclusive inhibitor”.
For the molecule `NNS(=O)(=O)c1ccc(Oc2ccc(S(=O)(=O)NN)cc2)cc1` [4,4'-Oxybis(benzenesulfonhydrazide)], the “CYP1A2 AC50” value on human CYP1A2 is “Inactive”. The concentration at half-maximal activity (AC50) on human CYP2C9 stood at 6 µM; at CYP3A4 it was 7.84 µM; at human CYP2C19 [1], 16.8 µM. At human CYP2D6, the “CYP2D6 AC50” value was “Inconclusive inhibitor”.
Consider `O=S(=O)(c1ccccc1)c1ccccc1` [Diphenylsulfone], for which, on human CYP1A2, the “CYP1A2 AC50” value is “Inactive”. Besides, the AC50 at human CYP2C9 (setting [3]) worked out at 7.39 µM; at CYP3A4 (setting [4]) it was 28.4 µM; on human CYP2C19 [1] (setting [5]), 41.1 µM. Besides, the “CYP2D6 AC50” value on human CYP2D6 is listed as “Inactive”.
On to `NS(=O)(=O)c1ccc(NCc2ccccc2)cc1` [Benzylsulfamide], for which the “CYP1A2 AC50” value on human CYP1A2 is listed as “Inactive”. Besides, the concentration at half-maximal activity (AC50) at human CYP2C9 was 18.6 ± 5.47 µM; at CYP3A4, 7.8 ± 0.9 µM; at human CYP2C19 [1], 3.82 ± 1.44 µM. At human CYP2D6, the “CYP2D6 AC50” value is recorded as “Inactive”.
Take `O=C(O)c1cc(Cl)cc(Cl)c1O` [3,5-Dichlorosalicylic acid]: the “CYP1A2 AC50” value on human CYP1A2 was “Inconclusive inhibitor”. In addition, the AC50 on human CYP2C9 was 28.3 µM; on CYP3A4 it was 37 µM. For the same molecule, at human CYP2D6, the “CYP2D6 AC50” value is recorded as “Inactive”. The “CYP2C19 AC50 (half-maximal activity concentration)” value (shortened to “CYP2C19 AC50”) at human CYP2C19 [2] is “Inactive”.
Regarding `O=C(NC(=O)c1c(F)cccc1F)Nc1ccc(Oc2ccc(C(F)(F)F)cc2Cl)cc1F` [Flufenoxuron], the “CYP1A2 AC50” value at human CYP1A2 is “Inactive”. In addition, the concentration at half-maximal activity (AC50) is 17.8 µM at human CYP2C9 (setting [3]) and 18.6 µM on CYP3A4 (setting [4]). Also, the “CYP2D6 AC50” value at human CYP2D6 is “Inactive”. For the same molecule, the “CYP2C19 AC50” value on human CYP2C19 [2] is on record as “Inconclusive”.
Turning to `CC(=O)OC(c1ccccc1)C(Cl)(Cl)Cl` (stereo not drawn) [2,2,2-Trichloro-1-phenylethyl acetate], at human CYP1A2, the “CYP1A2 AC50” value was “Inactive”. Moreover, the AC50 was 71.3 µM at human CYP2C9, 23.9 µM at CYP3A4 and 35.6 µM at human CYP2C19 [1]. Moreover, the “CYP2D6 AC50” value at human CYP2D6 is given as “Inactive”.
As for `CC(=O)OCC(=O)[C@@]12N=C(C)O[C@@H]1C[C@H]1[C@@H]3CCC4=CC(=O)C=C[C@]4(C)[C@H]3[C@@H](O)C[C@@]12C` [Deflazacort], the “CYP1A2 AC50” value at human CYP1A2 is “Inactive”. Also, the values for the AC50 on human CYP2C9 (setting [3]) and on CYP3A4 (setting [4]) were 60.9 µM and 13.2 µM, respectively. Also, the “CYP2D6 AC50” value at human CYP2D6 is “Inactive”. For the same molecule, the “CYP2C19 AC50” value on human CYP2C19 [2] was “Inactive”.
Consider `O=C(O)C(c1ccc(Cl)cc1)c1ccc(Cl)cc1` [p,p'-DDA], for which the “CYP1A2 AC50” value at human CYP1A2 is given as “Inactive”. The concentration at half-maximal activity (AC50) on human CYP2C9 (setting [3]) came to 15.4 µM; on CYP3A4 (setting [4]), 68.4 µM; at human CYP2C19 [1] (setting [5]), 24.5 µM. On human CYP2D6, the “CYP2D6 AC50” value is “Inactive”.
On to `Cc1ccc(Cl)c(Nc2ccccc2C(=O)O)c1Cl` [Meclofenamate sodium], for which the “CYP1A2 AC50” value on human CYP1A2 is given as “Inactive”. For the same molecule, the results for the AC50 at human CYP2C9 (setting [3]) and on CYP3A4 (setting [4]) were 24.2 µM and 38.9 µM, respectively. Further, on human CYP2D6, the “CYP2D6 AC50” value is “Inconclusive inhibitor”. Besides, at human CYP2C19 [2], the “CYP2C19 AC50” value is “Inactive”.
As to `COC(=O)C(C)N(C(=O)c1ccco1)c1c(C)cccc1C` (stereo not drawn) [Furalaxyl], the “CYP1A2 AC50” value at human CYP1A2 is “Inconclusive inhibitor”. For the same molecule, the AC50 came to 29.5 µM at human CYP2C9 (setting [3]), 14.7 µM on CYP3A4 (setting [4]) and 13.4 µM on human CYP2C19 [1] (setting [5]). The “CYP2D6 AC50” value on human CYP2D6 is listed as “Inactive”.
Taken in the same sequence, the figures for `CC(=O)O[C@]1(C(C)=O)CC[C@H]2[C@@H]3C=C(C)C4=CC(=O)CC[C@]4(C)[C@H]3CC[C@@]21C` [Megestrol acetate] were “Inactive”, 8.11 µM, 2.16 µM, 7.2 µM and “Inactive”.
Regarding `CC(C)COC(=O)CCCCC(=O)OCC(C)C` [Diisobutyl adipate], at human CYP1A2, the “CYP1A2 AC50” value is “Inconclusive inhibitor”. The concentration at half-maximal activity (AC50) on human CYP2C9 came out at 38 µM; at CYP3A4 it was 11.7 µM. Also, the “CYP2D6 AC50” value on human CYP2D6 was “Inactive”. The “CYP2C19 AC50” value on human CYP2C19 [2] is “Inactive”.
`CC(=O)O[C@H]1CC[C@@]2(C)C(=CC[C@@H]3[C@@H]2CC[C@]2(C)C(=O)CC[C@@H]32)C1` [Dehydroepiandrosterone acetate]: at human CYP1A2, the “CYP1A2 AC50” value is “Inconclusive inhibitor”. Besides, the concentration at half-maximal activity (AC50) at human CYP2C9 (setting [3]) is 28.4 µM; on CYP3A4 (setting [4]), 6.03 µM; on human CYP2C19 [1] (setting [5]), 28.4 µM. The “CYP2D6 AC50” value at human CYP2D6 is reported as “Inactive”.
Turning to `CC(=O)OCC(=O)[C@H]1CC[C@H]2[C@@H]3CCC4=CC(=O)CC[C@]4(C)[C@H]3CC[C@]12C` [Deoxycorticosterone acetate], at human CYP1A2, the “CYP1A2 AC50” value is recorded as “Inactive”. For the same molecule, the AC50 on human CYP2C9 (setting [3]) was 5.67 µM; on CYP3A4 (setting [4]) it was 4.07 µM; on human CYP2C19 [1] (setting [5]), 8.43 µM. Moreover, the “CYP2D6 AC50” value at human CYP2D6 is “Inconclusive inhibitor”.
With `O=C1OC2(c3ccccc31)c1ccc(O)c(Br)c1Oc1c2ccc(O)c1Br` [4',5'-Dibromofluorescein], the “CYP1A2 AC50” value on human CYP1A2 is on record as “Inconclusive inhibitor”. For the same molecule, the AC50 at human CYP2C9 was 46.2 µM; on CYP3A4, 27.2 µM; at human CYP2C19 [1] it was 53.7 µM. Besides, the “CYP2D6 AC50” value on human CYP2D6 was “Inactive”.
For `C[C@]12CCC(=O)C=C1CC[C@@H]1[C@@H]2CC[C@]2(C)C(=O)CC[C@@H]12` [4-Androstene-3,17-dione], the “CYP1A2 AC50” value on human CYP1A2 is reported as “Inactive”. For the same molecule, the AC50 on human CYP2C9 (setting [3]) was 71.9 µM; on CYP3A4 (setting [4]), 8.36 µM; on human CYP2C19 [1] (setting [5]) it was 33.3 µM. Further, at human CYP2D6, the “CYP2D6 AC50” value is on record as “Inconclusive inhibitor”.
`Cc1ccc(S(=O)(=O)NCl)cc1` [Chloramine-T trihydrate]: the “CYP1A2 AC50” value on human CYP1A2 is listed as “Inconclusive inhibitor”. The results for the concentration at half-maximal activity (AC50) on human CYP2C9 (setting [3]) and on CYP3A4 (setting [4]) were 81.6 µM and 67.9 µM, respectively. Also, the “CYP2D6 AC50” value on human CYP2D6 is listed as “Inactive”. For the same molecule, the “CYP2C19 AC50” value at human CYP2C19 [2] is on record as “Inconclusive inhibitor”.
Take `N#Cc1cc(Br)c(O)c(Br)c1` [Bromoxynil]: the “CYP1A2 AC50” value on human CYP1A2 is “Inactive”. Also, the AC50 on human CYP2C9 (setting [3]) worked out at 18.7 µM; on CYP3A4 (setting [4]), 29.6 µM. Further, the “CYP2D6 AC50” value at human CYP2D6 is “Inactive”. Also, at human CYP2C19 [2], the “CYP2C19 AC50” value was “Inactive”.
On to `CC(=O)OCC(=O)[C@@]1(OC(C)=O)[C@@H](C)C[C@H]2[C@@H]3C[C@H](F)C4=CC(=O)C=C[C@]4(C)[C@@]3(F)[C@@H](O)C[C@@]21C` [Diflorasone diacetate], for which the “CYP1A2 AC50” value on human CYP1A2 is given as “Inactive”. In addition, the values for the AC50 on human CYP2C9 (setting [3]) and at CYP3A4 (setting [4]) were 19 µM and 4.74 µM, respectively. Moreover, the “CYP2D6 AC50” value at human CYP2D6 was “Inactive”. Moreover, the “CYP2C19 AC50” value on human CYP2C19 [2] is reported as “Inconclusive activator”.
For the molecule `CCC(=O)Oc1ccc(/C(CC)=C(\CC)c2ccc(OC(=O)CC)cc2)cc1` [Diethylstilbestrol dipropionate], the “CYP1A2 AC50” value at human CYP1A2 is given as “Inactive”. Moreover, the concentration at half-maximal activity (AC50) on human CYP2C9 (setting [3]) stood at 21.2 µM; on CYP3A4 (setting [4]), 22.9 µM. Moreover, on human CYP2D6, the “CYP2D6 AC50” value is on record as “Inactive”. Also, at human CYP2C19 [2], the “CYP2C19 AC50” value is “Inactive”.

The values are drawn from PMC12155096 (International Journal of Molecular Sciences, 2025).
